Consider five compounds from patent publication US20250320205A1, “STAT6 DEGRADERS” (Gilead Sciences, Inc., priority 2024, published 2025).

One assay has as its target T1, STAT6 (Homo sapiens, UniProt P42226).
T1 construct: These cells express endogenous STAT6; host or cells: HeLa LgBiT clone 4.14 (CRISPR knock-in of HiBiT into the endogenous STAT6 gene)
T1 sequence (P42226 1-847): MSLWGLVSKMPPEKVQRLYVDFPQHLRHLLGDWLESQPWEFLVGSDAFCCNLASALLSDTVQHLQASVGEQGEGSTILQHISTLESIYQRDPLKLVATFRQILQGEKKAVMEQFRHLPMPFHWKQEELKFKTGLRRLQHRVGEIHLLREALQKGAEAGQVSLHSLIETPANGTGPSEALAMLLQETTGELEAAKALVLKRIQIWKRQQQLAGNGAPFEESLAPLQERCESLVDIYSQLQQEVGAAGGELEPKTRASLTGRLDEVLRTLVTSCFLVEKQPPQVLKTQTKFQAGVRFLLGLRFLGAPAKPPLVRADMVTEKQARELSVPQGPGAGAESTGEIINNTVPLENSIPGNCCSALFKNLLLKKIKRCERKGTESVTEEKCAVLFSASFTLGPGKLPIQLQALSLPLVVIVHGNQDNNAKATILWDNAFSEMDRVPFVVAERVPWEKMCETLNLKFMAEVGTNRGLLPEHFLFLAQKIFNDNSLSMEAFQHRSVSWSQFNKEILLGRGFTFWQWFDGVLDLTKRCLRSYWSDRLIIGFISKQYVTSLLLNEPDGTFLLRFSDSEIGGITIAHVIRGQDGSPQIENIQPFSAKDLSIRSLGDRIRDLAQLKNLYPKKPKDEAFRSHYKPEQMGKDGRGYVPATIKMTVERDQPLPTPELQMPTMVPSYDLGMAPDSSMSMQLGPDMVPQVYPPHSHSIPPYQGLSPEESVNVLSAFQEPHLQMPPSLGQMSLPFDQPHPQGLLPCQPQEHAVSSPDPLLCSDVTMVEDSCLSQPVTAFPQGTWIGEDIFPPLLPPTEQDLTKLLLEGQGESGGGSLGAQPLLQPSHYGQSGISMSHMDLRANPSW
As to the kind of experiment: STAT6 Degrader Assay (HiBiT based, HeLa LgBiT clone 4.14 cells). Particulars: geometric mean across assay runs and compound batches; DC50 provided for test compounds with >80% Emax; read-out: STAT6 degradation DC50. The class given is cell-based. The essentials: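 HeLa LgBiT clone 4.14 with CRISPR HiBiT-tagged endogenous STAT6, 5000 cells/well, compound exposure 4-24 h at 37° C. Residual STAT6 read as Nano-Glo luminescence after 0.5 h. 50 μM terfenadine set 100% degradation; DC50 in nM.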
For orientation: HiBiT is a short tag that completes a luciferase, so light tracks the accessible tagged protein.

In assay [1] the test system is Eotaxin-3 (CCL26) release. As to the kind of experiment: Human Whole Blood Eotaxin-3 Assay (IL-4 stimulated). The class given is cell-based. Particulars: Homo sapiens; geometric mean across assay runs and compound batches; EC50 provided for test compounds with >80% Emax. An outline of the steps:
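Lithium-heparin human whole blood preincubated 2 h at 37 °C with compounds (4-fold dilutions, triplicate, 0.5% DMSO final). Then stimulated with 400 pM final recombinant human IL-4 for 48 h. Eotaxin-3 in supernatant quantified by MSD immunoassay.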

What is called DC50 is the concentration at which degradation of the target reaches its halfway point. As a reminder, the EC50 is the concentration at which the effect is half-maximal. High values mean a less potent agent, low ones a more potent agent.

Take `CNc1cc(=O)n(-c2ccnc3c2cc([C@H](C)N2CC=C(c4c(F)cc(C(=O)N5CCC(CN6CCN(c7ccc(NC8CCC(=O)NC8=O)cc7F)CC6)CC5)cc4F)CC2)n3C)cc1F` (stereo partly drawn) [Example 2g119, 3-((4-(4-((1-(3,5-difluoro-4-(1-((S)-1-(4-(5-fluoro-4-(methylamino)-2-oxopyridin-1(2H)-yl)-1-methyl-1H-pyr-rolo[2,3-b]pyridin-2-yl)ethyl)-1,2,3,6-tetrahydropyridin-4-yl)benzoyl)piperidin-4-yl)-methyl)piperazin-1-yl)-3-fluorophenyl)amino)piperi-dine-2,6-dione]: on STAT6, the DC50 came out at 14 nM. The same compound yielded an EC50 in assay [1] of 48.2 nM.
`Cc1cc(C(=O)N2CCC(CN3CCN(c4ccc(NC5CCC(=O)NC5=O)cc4F)CC3)CC2)cc(F)c1C1=CCN([C@@H](C)c2cc3c(-n4ccc5c(c4=O)CCN5)ccnc3n2C)CC1` (stereo partly drawn) [Example 2g18, 3-((3-fluoro-4-(4-((1-(3-fluoro-5-methyl-4-(1-((S)-1-(1-methyl-4-(4-oxo-1,2,3,4-tetrahydro-5H-pyrrolo[3,2-c]pyridin-5-yl)-1H-pyrrolo[2,3-b]pyridin-2-yl)ethyl)-1,2,3,6-tetrahydropyridin-4-yl)benzo-yl)piperidin-4-yl)methyl)-piperazin-1-yl)phenyl)amino)-piperidine-2,6-dione]: the DC50 on STAT6 came out at 3.1 nM. Moreover, in assay [1], the EC50 worked out at 5.5 nM.
As for `CNc1ccn(-c2ccnc3c2cc(CN2CCC(c4c(F)cc(C(=O)N5CCC(CN6CCN(c7ccc(N[C@H]8CCC(=O)NC8=O)cc7F)CC6)CC5)cc4F)CC2)n3C)c(=O)c1` (single isomer, unassigned) [Example 2g58], the DC50 on STAT6 came to 10.4 nM. In assay [1], this compound gave an EC50 of 196 nM.
On the same counts, the results for `C[C@@H](c1cc2c(-n3ccc4c(c3=O)CCN4)ccnc2n1C)N1CCC(c2ccc(C(=O)N3CCC(CN4CCN(c5ccc(N[C@H]6CCC(=O)NC6=O)cc5F)CC4)CC3)cc2)CC1` (single isomer, unassigned) [Example 2c36] are 5.7 nM and 22.1 nM.
Take `CNc1cc(=O)n(-c2ccnc3c2cc([C@H](C)N2CC=C(c4c(C)cc(C(=O)N5CCn6nc(CC7(O)CCN(c8ccc(NC9CCC(=O)NC9=O)c(OC)c8)CC7)cc6C5)cc4F)CC2)n3C)cc1F` (stereo partly drawn) [Example 2g7, 3-((4-(4-((5-(3-fluoro-4-(1-((S)-1-(4-(5-fluoro-4-(meth-ylamino)-2-oxopyridin-1(2H)-yl)-1-methyl-1H-pyrrolo[2,3-b]pyridin-2-yl)ethyl)-1,2,3,6-tetrahydropyridin-4-yl)-5-methylbenzoyl)-4,5,6,7-tetra-hydropyrazolo[1,5-a]pyrazin-2-yl)methyl)-4-hydroxy-piperidin-1-yl)-2-methoxy-phenyl)amino)-piperidine-2,6-dione]: the DC50 on STAT6 turned out to be 10.3 nM. It took 15.4 nM to reach a half-maximal effect in assay [1] (EC50).
